Measured values taken from patent US11458433B2, “Absorbent and process for selectively removing hydrogen sulfide” (BASF SE, priority 2017, dated 2022).

How the values were obtained:
Type in all cases: physicochemical
[1] = Volatility of amines in 30% by weight aqueous solutions (condensate analysis); conditions: 30 wt.-% amine + 70 wt.-% H2O, 200 mL, 50° C., 30 L (STP)/h N2, 8 h; average of three experiments
Description: The volatility of several amines in 30% by weight aqueous solutions was examined.
The glass cylinder was regulated to 50° C., and 200 mL of the absorbent were introduced in each case. Over an experimental duration of 8 h, 30 L (STP)/h of N2 were passed through the absorbent at ambient pressure.
The experiments were repeated three times.

[2] = Phase separation: critical solution temperature in miscibility unit; conditions: 36 wt.-% aqueous solution; measurable up to 140° C.
Description: To determine the critical solution temperature, a miscibility unit was used. This unit allows the measurement of the temperature at which phase separation occurs (“critical solution temperature”).
The miscibility unit comprised a sight glass vessel equipped with a pressure gauge and a thermocouple. A heater was used to supply heat to the vessel. Measurements were possible up to a temperature of 140° C. The possible phase separation could be visually observed via the sight glass. In the following table, the measured critical solution temperatures are shown for different aqueous amine mixtures.

[3] = pKA determination by titration with aqueous hydrochloric acid; conditions: aqueous amine solution; 20° C.; 0.005 mol/L amine in water titrated with 0.1 mol/L HCl
Description: The pKa values of MDEA and TBAPD were determined by means of titration. An aqueous solution with an amine concentration of 0.005 mol/L of amine was used and titrated with aqueous hydrochloric acid (0.1 mol/L) at 20° C.

COCCOCCOCCNC(C)(C)C [M3ETB, (2-(2-(2-tert-butylaminoethoxy)ethoxy)ethyl) methyl ether]
Amine in condensate [1]: 0.7 wt.-%
Condensate [1]: 30.1 mL
Water in condensate [1]: 99.2 wt.-%
Critical Solution Temperature [2]: 107° ° C.

CC(C)(C)NCCOCCO [TBAEE, 2-(2-tert-butylaminoethoxy)ethanol]
Amine in condensate [1]: 0.7 wt.-%
Condensate [1]: 30.0 mL
Water in condensate [1]: 99.3 wt.-%

CC(C)(C)NCCN1CCCC1=O [TBAEPY, 1-[2-(tert-butylamino)ethyl]pyrrolidin-2-one]
Amine in condensate [1]: 0.2 wt.-%
Condensate [1]: 28.8 mL
Water in condensate [1]: 99.5 wt.-%
Critical Solution Temperature [2]: —** (no phase separation observed at up to 140° C.)
pKa [3]: 9.6

tert-butylaminoethoxyethylmorpholine [TBAEEM]
Amine in condensate [1]: 0.2 wt.-%
Condensate [1]: 30.5 mL
Water in condensate [1]: 99.6 wt.-%
Critical Solution Temperature [2]: 131° ° C.

tert-butylaminoethylmorpholine [TBAEM]
Amine in condensate [1]: 1.6 wt.-%
Condensate [1]: 34.8 mL
Water in condensate [1]: 98.0 wt.-%
